Test results as given in ChEMBL document CHEMBL1136755, “Mapping property distributions of molecular surfaces: algorithm and evaluation of a novel 3D quantitative structure-activity relationship technique” (J Med Chem, 2003).

Molecular target: T1, Muscarinic acetylcholine receptor M2 (Sus scrofa, UniProt P06199)
T1 sequence (P06199 whole entry): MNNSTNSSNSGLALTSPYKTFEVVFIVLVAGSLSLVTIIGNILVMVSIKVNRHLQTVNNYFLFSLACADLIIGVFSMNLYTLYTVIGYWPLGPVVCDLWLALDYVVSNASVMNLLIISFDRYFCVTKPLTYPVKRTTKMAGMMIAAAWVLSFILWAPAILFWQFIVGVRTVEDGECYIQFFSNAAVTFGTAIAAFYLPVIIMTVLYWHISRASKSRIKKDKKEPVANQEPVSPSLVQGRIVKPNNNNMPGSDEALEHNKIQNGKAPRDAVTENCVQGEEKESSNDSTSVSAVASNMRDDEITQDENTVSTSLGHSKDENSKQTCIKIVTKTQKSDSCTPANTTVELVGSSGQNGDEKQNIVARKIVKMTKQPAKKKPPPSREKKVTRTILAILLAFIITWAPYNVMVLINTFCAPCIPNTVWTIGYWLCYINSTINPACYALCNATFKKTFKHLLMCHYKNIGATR
Experiment: Ability to dissociate radioligand [3H]NMS from muscarinic acetylcholine receptor M2 of porcine heart

`O=C1c2ccccc2C(=O)N1CCCN(CCCCCCN(CCCN1C(=O)c2ccccc2C1=O)C1CCCCC1)C1CCCCC1` and `Cc1ccc2c(c1)C(=O)N(CCCN(CCCCCCN(CCCN1C(=O)c3ccc(C)cc3C1=O)C1CCCCC1)C1CCCCC1)C2=O` are within 1.5-fold of each other in EC50: 0.045 µM for the first, 0.06 µM for the second.

First: C[N+](C)(CCCCCCC[N+](C)(C)CCCN1C(=O)[C@@H]2CCCC[C@H]2C1=O)CCCN1C(=O)[C@H]2CCCC[C@@H]2C1=O
Second: C[N+](C)(CCCCCCC[N+](C)(C)CCCN1C(=O)[C@H]2CCCC[C@H]2C1=O)CCCN1C(=O)[C@H]2CCCC[C@H]2C1=O
The EC50 of the first is 5.6-fold lower: 0.8 µM for the first, 4.5 µM for the second. The first is the more potent here.

First: C[N+](C)(CCCCCCC[N+](C)(C)CCCN1C(=O)c2ccccc2C1=O)CCCN1C(=O)c2ccccc2C1=O
Second: C[N+](C)(CCCCCC[N+](C)(C)CCCN1C(=O)c2cccc3cccc(c23)C1=O)CCCN1C(=O)c2ccccc2C1=O
The EC50 of the first is 6.2-fold higher: 0.389 µM for the first, 0.0631 µM for the second. The second is the more potent here.

Going from `C[C@@H]1C(=O)N(CCC[N+](C)(C)CCCCCCC[N+](C)(C)CCCN2C(=O)[C@H](C)[C@@H](C)C2=O)C(=O)[C@H]1C` to `CC1CC(=O)N(CCC[N+](C)(C)CCCCCCC[N+](C)(C)CCCN2C(=O)CC(C)C2=O)C1=O` (stereo not given), the EC50 rises from 12.1 µM to 32 µM (2.6-fold). The first is the more potent here.

`N#CCCN(CCCCCCN(CCC#N)CCCN1C(=O)c2ccccc2C1=O)CCCN1C(=O)c2ccccc2C1=O` and `O=C1c2ccccc2C(=O)N1CCCN(CCCCCCN(CCCc1ccccc1)CCCN1C(=O)c2ccccc2C1=O)CCCc1ccccc1` are within 1.5-fold of each other in EC50: 0.74 µM for the first, 0.991 µM for the second.

First: CC[N+](C)(C)CCCCCC[N+](C)(C)CCCN1C(=O)c2ccccc2C1=O
Second: CCCCCC[N+](C)(C)CCCN1C(=O)c2ccccc2C1=O
The EC50 of the first is 5.4-fold lower: 10 µM for the first, 54 µM for the second.

Going from `C[N+](C)(CCCCCCC[N+](C)(C)CCCN1C(=O)[C@H]2CC=CC[C@H]2C1=O)CCCN1C(=O)[C@H]2CC=CC[C@H]2C1=O` to `C[N+](C)(CCCCCCC[N+](C)(C)CCCN1C(=O)CCC1=O)CCCN1C(=O)CCC1=O`, the EC50 rises from 2.2 µM to 151 µM (69-fold).

Compared with `CCOC(=O)CCCCCC[N+](C)(C)CCCN1C(=O)c2ccccc2C1=O`, `C[N+](C)(CCCCCCO)CCCN1C(=O)c2ccccc2C1=O` is 4.6-fold lower in EC50: 111 µM for the first, 24 µM for the second. The second is the more potent here.

Going from `COc1ccc(CCN(C)CCCC(C#N)(c2ccc(OC)c(OC)c2)C(C)C)cc1OC` (stereo not given) to `C[N+](C)(CCCCCC[N+](C)(C)CCCN1C(=O)c2cc3ccccc3cc2C1=O)CCCN1C(=O)c2ccccc2C1=O`, the EC50 falls from 31 µM to 0.148 µM (210-fold). The second is the more potent here.

Going from `C[N+](C)(CCCCCC[N+](C)(C)CCCN1c2ccccc2C(=O)NC1c1ccccc1)CCCN1c2ccccc2C(=O)NC1c1ccccc1` (stereo not given) to `C[N+](C)(CCCCCC[N+](C)(C)CCCN1C(=O)CC2c3ccccc3C(C1=O)c1ccccc12)CCCN1C(=O)c2ccccc2C1=O`, the EC50 falls from 0.741 µM to 0.398 µM (1.9-fold).

Going from `C[N+](C)(CCCCCC[N+](C)(C)CCCN1C(=O)c2ccccc2C1=O)CCCN1C(=O)CCC1=O` to `C[N+](C)(CCCCCC[N+](C)(C)CCCN1C(=O)c2cccnc2C1=O)CCCN1C(=O)c2ccccc2C1=O`, the EC50 falls from 9.77 µM to 2.34 µM (4.2-fold).

Tested on: Oryctolagus cuniculus
Experiment: Eye irritation potential accessed using Draize in vivo rabbit eye irritation test
Format: functional

Compared with `CC(C)c1cccc(C(C)C)c1`, `CCC(C)c1ccccc1` (stereo not given) is lower in MES: 0.38 for the first, 0.31 for the second.

Going from `CCCC(C)C` to `CCCC(C)CC` (stereo not given), the MES falls from 0.26 to 0.1.

Going from `Nc1ccc(F)cc1` to `Cc1ccc(C)cc1` [P-XYLENE], the MES falls from 6.62 to 1.1.

Compared with `CCCCC(CC)CO` (stereo not given), `CCCCCCO` [1-HEXANOL] is higher in MES: 7.82 for the first, 8.13 for the second.

First: C=CCCCCCCC=C
Second: C=CCCC=C
The MES of the first is lower: 0.37 for the first, 0.55 for the second.

First: CCC(C)=O [BUTANONE]
Second: CC(C)=O [ACETONE]
The MES of the first is lower: 4.48 for the first, 4.83 for the second.

Going from `O=[N+]([O-])c1ccc(F)cc1F` to `CCc1cccc(C)c1`, the MES falls from 0.4 to 0.32.

Compared with `CCCCO` [BUTYL ALCOHOL], `CCCCOCCO` [BUTOXYETHANOL] is higher in MES: 5.47 for the first, 8.99 for the second.

Going from `CCOC(=O)C(C)C(C)=O` (stereo not given) to `CCOC(C)=O` [ETHYL ACETATE], the MES falls from 2.55 to 1.47.

Compared with `CCOCC(=O)O`, `CCOC(=O)C(C)(C)C` is lower in MES: 2.03 for the first, 0.63 for the second.

First: CC(=O)CC(C)C [METHYL ISOBUTYL KETONE]
Second: CC(C)CO [ISOBUTANOL]
The MES of the first is lower: 0.59 for the first, 6.44 for the second.

First: C1=C\CCCCCC/1 [CYCLOOCTENE]
Second: OC1CCCCC1 [CYCLOHEXANOL]
The MES of the first is lower: 0.43 for the first, 8.29 for the second.

Compared with `Cc1ccccc1` [TOLUENE], `C=Cc1ccccc1` [STYRENE] is lower in MES: 0.96 for the first, 0.77 for the second.

First: OCC(O)CO [GLYCERIN]
Second: CC(O)CO (stereo not given) [PROPYLENE GLYCOL]
The MES of the first is higher: 0.12 for the first, 0.1 for the second.

Going from `CCC(C)(C)C(=O)O` [DIMEBUTIC ACID] to `COC(=O)C(C)(C)C`, the MES falls from 5.59 to 0.36.

Going from `COC(C)=O` [ACETIC ACID METHYL ESTER] to `CCCCOC(C)=O` [ACETIC ACID BUTYL ESTER], the MES falls from 3.14 to 0.99.

First: C/C1=C/C=C\C(C)CCC1 (stereo not given)
Second: CC1CCCC1 [METHYLCYCLOPENTANE]
The MES of the first is higher: 0.44 for the first, 0.41 for the second.

Going from `CCCCCC(C)=O` to `CCCCCCCCCCCC` [DODECANE], the MES falls from 2.26 to 0.45.

First: O=C1c2ccccc2C(=O)N1CCCCBr
Second: CC(C)O [ISOPROPYL ALCOHOL]
The MES of the first is lower: 0.19 for the first, 2.34 for the second.

Molecular target: T2, Corticosteroid-binding globulin (Homo sapiens) (UniProt P08185)
T2 sequence (whole entry): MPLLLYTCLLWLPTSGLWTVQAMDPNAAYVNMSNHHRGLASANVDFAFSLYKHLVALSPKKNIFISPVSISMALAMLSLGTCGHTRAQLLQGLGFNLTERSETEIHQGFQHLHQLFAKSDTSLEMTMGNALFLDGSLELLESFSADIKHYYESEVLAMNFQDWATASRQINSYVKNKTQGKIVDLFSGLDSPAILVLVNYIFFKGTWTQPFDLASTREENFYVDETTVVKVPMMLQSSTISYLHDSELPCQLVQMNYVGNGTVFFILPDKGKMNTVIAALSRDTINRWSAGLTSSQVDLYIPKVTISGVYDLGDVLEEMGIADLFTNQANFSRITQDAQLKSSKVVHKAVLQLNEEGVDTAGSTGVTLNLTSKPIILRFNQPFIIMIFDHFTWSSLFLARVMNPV
Description: Binding affinity towards corticosteroid-binding globulin (CBG)

`C[C@]12CC[C@H](O)C[C@@H]1CC[C@@H]1[C@@H]2CC[C@]2(C)[C@@H](O)CC[C@@H]12` and `CC(=O)[C@@]1(O)CC[C@H]2[C@@H]3CC[C@@H]4C[C@H](O)CC[C@]4(C)[C@H]3CC[C@@]21C` are the same in Log K: 5 for the first, 5 for the second.

Compared with `CC(=O)[C@H]1[C@H](C)C[C@H]2[C@@H]3CCC4=CC(=O)CC[C@]4(C)[C@H]3CC[C@@]21C`, `CC(=O)[C@H]1CC[C@H]2[C@@H]3CCC4=CC(=O)CC[C@]4(C)[C@H]3CC[C@]12C` is higher in Log K: 7.12 for the first, 7.38 for the second.

Compared with `C[C@]12CC[C@H]3[C@@H](CCC4=CC(=O)CC[C@@]43C)[C@@H]1CC[C@@H]2O`, `C[C@]12CC[C@H]3[C@@H](CCC4=CC(=O)CC[C@@]43C)[C@@H]1CC[C@@H]2C(=O)CO` is higher in Log K: 6.72 for the first, 7.65 for the second.

Going from `C[C@]12CCC(=O)C=C1CC[C@@H]1[C@@H]2[C@@H](O)C[C@@]2(C)[C@H]1CC[C@]2(O)C(=O)CO` to `CC(=O)OCC(=O)[C@@]1(O)CC[C@H]2[C@@H]3CCC4=CC(=O)CC[C@]4(C)[C@H]3[C@@H](O)C[C@@]21C`, the Log K falls from 7.88 to 7.55.

First: C[C@]12C[C@@H](O)[C@H]3[C@@H](CCC4=CC(=O)CC[C@@]43C)[C@@H]1CC[C@@H]2C(=O)CO
Second: C[C@]12C[C@H](O)[C@H]3[C@@H](CCC4=CC(=O)CC[C@@]43C)[C@@H]1CC[C@@H]2C(=O)CO
The Log K of the first is lower: 7.2 for the first, 7.88 for the second.

Going from `C[C@]12C=CC(=O)C=C1CC[C@@H]1[C@@H]2[C@@H](O)C[C@@]2(C)[C@H]1CC[C@]2(O)C(=O)CO` to `C[C@]12CCC(=O)C=C1CC[C@@H]1[C@@H]2CC[C@@]2(C)[C@H]1CC[C@]2(O)C(=O)CO`, the Log K rises from 7.51 to 7.88.

First: C[C@]12CC[C@H]3[C@@H](CCC4=CC(=O)CC[C@@H]43)[C@@H]1CC[C@@H]2O
Second: CC(=O)[C@H]1CC[C@H]2[C@@H]3CCC4=CC(=O)CC[C@@H]4[C@H]3CC[C@]12C
The Log K of the first is lower: 6.14 for the first, 6.82 for the second.

Going from `C[C@@H]1C[C@@]2(C)C(=CC1=O)CC[C@H]1[C@@H]3CC[C@](O)(C(=O)CO)[C@@]3(C)C[C@H](O)[C@@]12F` to `C[C@]12CCC(=O)C=C1CC[C@@H]1[C@@H]2C(=O)C[C@@]2(C)[C@H]1CC[C@]2(O)C(=O)CO`, the Log K rises from 5.8 to 6.89.

Compared with `CC(=O)[C@H]1CC[C@H]2[C@@H]3CC=C4C[C@@H](O)CC[C@]4(C)[C@H]3CC[C@]12C`, `C[C@]12CC[C@H](O)CC1=CC[C@@H]1[C@@H]2CC[C@]2(C)C(=O)CC[C@@H]12` is lower in Log K: 5.25 for the first, 5 for the second.

`C[C@]12CC[C@@H]3c4ccc(O)cc4CC[C@H]3[C@@H]1CC[C@@H]2O` and `C[C@]12CC[C@@H]3c4ccc(O)cc4CC[C@H]3[C@@H]1C[C@@H](O)[C@@H]2O` are the same in Log K: 5 for the first, 5 for the second.

Compared with `C[C@]12CCC(=O)C=C1CC[C@@H]1[C@@H]2CC[C@]2(C)C(=O)CC[C@@H]12`, `CC(=O)[C@@]1(O)CC[C@H]2[C@@H]3CCC4=CC(=O)CC[C@]4(C)[C@H]3CC[C@@]21C` is higher in Log K: 5.76 for the first, 7.74 for the second.

First: CC(=O)[C@@]1(O)[C@H](O)C[C@H]2[C@@H]3CCC4=CC(=O)CC[C@]4(C)[C@H]3CC[C@@]21C
Second: CC(=O)[C@H]1CC[C@H]2[C@@H]3CCC4=CC(=O)CC[C@]4(C)[C@H]3C(=O)C[C@]12C
The Log K of the first is lower: 6.25 for the first, 6.78 for the second.

Molecular target: T2, Corticosteroid-binding globulin (Homo sapiens)
Remark: another data set of the same source
Description: Binding affinity towards corticosteroid binding globulin (CBG)

With `C[C@]12CCC(=O)C=C1CC[C@@H]1[C@@H]2[C@@H](O)C[C@]2(C=O)[C@@H](C(=O)CO)CC[C@@H]12` the Log K was 6.28.
